Measured values: US10710978B2, “STK4 inhibitors for treatment of hematologic malignancies” (Dana-Farber Cancer Institute, Inc., priority 2015, dated 2020)
Like-named read-outs stand apart in the source and are kept apart here.

What was measured:
Experiment in all cases: KiNativ assay
Assay type in all cases: binding
CK1d, CK1e = details: H929 live cell
How it was run: (§1)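 Each compound is applied at 10 μM to live H929 cells in duplicate. Kinase activity-site labelling is then analysed by KiNativ. IC50 is obtained by mass spectrometry.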

CDK9 = CDK9 (Homo sapiens (Human), UniProt P50750); details: H929 live cell
How it was run: as §1

ROCK1, ROCK2 = details: H929 live cell; for % inhibition (range): 10 μM
How it was run: as §1

ARAF = ARAF (Homo sapiens (Human), UniProt P10398); details: H929 live cell
How it was run: as §1

MAP2K2 = MAP2K2 (Homo sapiens (Human), UniProt P36507); details: H929 live cell
How it was run: as §1

QSK = QSK (Homo sapiens (Human), UniProt Q9Y2K2); details: H929 live cell
How it was run: as §1

SGK2 = SGK2 (Homo sapiens (Human), UniProt Q9HBY8); details: H929 live cell
How it was run: as §1

KHS2 = KHS2 (Homo sapiens (Human), UniProt Q8IVH8); details: H929 live cell
How it was run: as §1

GPRK5 = GPRK5 (Homo sapiens (Human), UniProt P34947); details: H929 live cell
How it was run: as §1

CK1g1 = CK1g1 (Homo sapiens (Human), UniProt Q9HCP0); details: H929 live cell
How it was run: as §1

PDK1 = PDK1 (Homo sapiens (Human), UniProt O15530); details: H929 live cell
How it was run: as §1

PYK2 = PYK2 (Homo sapiens (Human), UniProt Q14289); details: H929 live cell
How it was run: as §1

Erk5 = Erk5 (Homo sapiens (Human), UniProt Q13164); details: H929 live cell
How it was run: as §1

MAP3K6 = MAP3K6 (Homo sapiens (Human), UniProt O95382); details: H929 live cell
How it was run: as §1

PAK2 = PAK2 (Homo sapiens (Human), UniProt Q13177); details: H929 live cell
How it was run: as §1

LATS2 = LATS2 (Homo sapiens (Human), UniProt Q9NRM7); details: H929 live cell
How it was run: as §1

PIP4K2B = PIP4K2B (Homo sapiens (Human), UniProt P78356); details: H929 live cell
How it was run: as §1

MER, TYRO3 = details: H929 live cell
How it was run: as §1

GAK = GAK (Homo sapiens (Human), UniProt O14976); details: H929 live cell
How it was run: as §1

MAP3K3 = MAP3K3 (Homo sapiens (Human), UniProt Q99759); details: H929 live cell
How it was run: as §1

TAK1 = TAK1 (Homo sapiens (Human), UniProt O43318); details: H929 live cell
How it was run: as §1

PCTAIRE1, PCTAIRE3 = details: H929 live cell
How it was run: as §1

ULK3 = ULK3 (Homo sapiens (Human), UniProt Q6PHR2); details: H929 live cell
How it was run: as §1

MAP3K15 = MAP3K15 (Homo sapiens (Human), UniProt Q6ZN16); details: H929 live cell
How it was run: as §1

AGK = AGK (Homo sapiens (Human), UniProt Q53H12); details: H929 live cell
How it was run: as §1

MELK = MELK (Homo sapiens (Human), UniProt Q14680); details: H929 live cell
How it was run: as §1

PCTAIRE2, PCTAIRE3 = details: H929 live cell
How it was run: as §1

LZK = LZK (Homo sapiens (Human), UniProt O43283); details: H929 live cell
How it was run: as §1

[1] = system: ALK2, ALK4, ALK7, BMPR1B, TGFbR1; details: H929 live cell
How it was run: as §1

MLK4 = MLK4 (Homo sapiens (Human), UniProt Q5TCX8); details: H929 live cell
How it was run: as §1

CLK3 = CLK3 (Homo sapiens (Human), UniProt P49761); details: H929 live cell
How it was run: as §1

[2] = range class, read-out: % inhibition

CK1g1, sequence (Q9HCP0 whole entry): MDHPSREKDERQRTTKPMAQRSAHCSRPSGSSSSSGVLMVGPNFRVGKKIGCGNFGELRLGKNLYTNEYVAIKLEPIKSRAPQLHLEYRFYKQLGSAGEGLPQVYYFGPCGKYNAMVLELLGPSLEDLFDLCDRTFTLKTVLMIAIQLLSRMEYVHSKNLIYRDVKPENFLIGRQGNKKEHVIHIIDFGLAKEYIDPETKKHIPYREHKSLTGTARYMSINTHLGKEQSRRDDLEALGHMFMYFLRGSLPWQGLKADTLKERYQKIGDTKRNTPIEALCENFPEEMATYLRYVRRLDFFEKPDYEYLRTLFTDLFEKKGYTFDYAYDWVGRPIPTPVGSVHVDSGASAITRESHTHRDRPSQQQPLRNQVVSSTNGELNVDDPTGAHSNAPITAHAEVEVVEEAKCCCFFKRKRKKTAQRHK
GPRK5, sequence (P34947 whole entry): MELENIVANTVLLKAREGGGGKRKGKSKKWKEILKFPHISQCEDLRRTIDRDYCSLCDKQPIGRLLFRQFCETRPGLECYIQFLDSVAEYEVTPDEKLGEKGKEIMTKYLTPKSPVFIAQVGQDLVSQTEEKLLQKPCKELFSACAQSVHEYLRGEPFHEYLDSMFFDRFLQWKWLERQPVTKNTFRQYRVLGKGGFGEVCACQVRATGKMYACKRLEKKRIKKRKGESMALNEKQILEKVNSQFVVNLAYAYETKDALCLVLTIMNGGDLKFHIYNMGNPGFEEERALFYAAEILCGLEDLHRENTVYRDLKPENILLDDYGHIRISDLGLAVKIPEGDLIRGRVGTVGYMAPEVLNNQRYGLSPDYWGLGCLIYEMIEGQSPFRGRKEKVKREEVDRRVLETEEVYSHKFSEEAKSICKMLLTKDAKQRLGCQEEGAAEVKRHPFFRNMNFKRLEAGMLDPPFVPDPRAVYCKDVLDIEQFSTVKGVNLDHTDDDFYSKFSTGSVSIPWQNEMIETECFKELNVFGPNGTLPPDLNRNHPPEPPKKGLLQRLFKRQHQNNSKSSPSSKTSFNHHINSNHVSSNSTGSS
QSK, sequence (Q9Y2K2 whole entry): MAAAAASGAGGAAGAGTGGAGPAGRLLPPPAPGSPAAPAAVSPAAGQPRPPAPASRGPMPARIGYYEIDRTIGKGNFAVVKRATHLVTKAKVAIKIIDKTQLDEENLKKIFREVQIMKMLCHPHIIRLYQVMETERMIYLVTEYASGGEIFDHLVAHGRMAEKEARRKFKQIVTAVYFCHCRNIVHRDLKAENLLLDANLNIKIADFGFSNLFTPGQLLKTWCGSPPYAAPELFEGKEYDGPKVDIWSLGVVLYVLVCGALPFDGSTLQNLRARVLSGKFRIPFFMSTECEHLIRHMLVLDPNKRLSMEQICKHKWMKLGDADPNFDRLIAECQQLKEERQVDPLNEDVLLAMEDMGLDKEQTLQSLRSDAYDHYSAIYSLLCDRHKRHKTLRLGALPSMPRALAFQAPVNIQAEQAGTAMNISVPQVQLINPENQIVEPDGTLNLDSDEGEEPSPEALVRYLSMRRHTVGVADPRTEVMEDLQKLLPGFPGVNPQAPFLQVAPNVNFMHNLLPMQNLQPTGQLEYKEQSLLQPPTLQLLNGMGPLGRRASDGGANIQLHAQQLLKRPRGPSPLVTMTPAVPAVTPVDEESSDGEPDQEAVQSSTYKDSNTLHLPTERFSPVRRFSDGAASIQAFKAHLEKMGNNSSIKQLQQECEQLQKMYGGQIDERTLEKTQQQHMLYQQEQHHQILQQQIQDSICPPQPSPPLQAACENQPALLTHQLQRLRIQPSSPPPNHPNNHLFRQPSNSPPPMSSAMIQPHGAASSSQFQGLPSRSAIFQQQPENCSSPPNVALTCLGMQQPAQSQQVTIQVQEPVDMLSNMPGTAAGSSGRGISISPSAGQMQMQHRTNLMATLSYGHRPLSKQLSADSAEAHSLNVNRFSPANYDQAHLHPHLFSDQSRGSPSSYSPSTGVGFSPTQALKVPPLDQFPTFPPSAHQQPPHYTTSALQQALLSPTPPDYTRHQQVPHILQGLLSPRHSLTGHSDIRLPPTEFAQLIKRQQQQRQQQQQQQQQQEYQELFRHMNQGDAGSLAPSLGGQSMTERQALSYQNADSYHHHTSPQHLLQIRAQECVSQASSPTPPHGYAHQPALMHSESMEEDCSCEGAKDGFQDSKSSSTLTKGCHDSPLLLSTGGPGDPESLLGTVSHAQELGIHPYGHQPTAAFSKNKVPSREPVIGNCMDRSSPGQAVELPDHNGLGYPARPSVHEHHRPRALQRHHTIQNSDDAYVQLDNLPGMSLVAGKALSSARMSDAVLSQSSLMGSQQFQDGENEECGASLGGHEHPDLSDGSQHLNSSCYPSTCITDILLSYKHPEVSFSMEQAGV
MAP2K2, sequence (P36507 whole entry): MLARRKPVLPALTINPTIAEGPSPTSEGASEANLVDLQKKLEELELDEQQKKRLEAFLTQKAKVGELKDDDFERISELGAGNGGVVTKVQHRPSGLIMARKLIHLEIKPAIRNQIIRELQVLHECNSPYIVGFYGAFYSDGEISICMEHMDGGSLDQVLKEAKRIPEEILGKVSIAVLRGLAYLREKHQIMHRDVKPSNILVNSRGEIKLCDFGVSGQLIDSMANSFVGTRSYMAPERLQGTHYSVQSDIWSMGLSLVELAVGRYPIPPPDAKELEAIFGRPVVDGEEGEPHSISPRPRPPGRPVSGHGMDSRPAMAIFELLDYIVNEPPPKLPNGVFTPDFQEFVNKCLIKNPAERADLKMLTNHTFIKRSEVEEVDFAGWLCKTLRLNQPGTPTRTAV
PDK1, sequence (O15530 whole entry): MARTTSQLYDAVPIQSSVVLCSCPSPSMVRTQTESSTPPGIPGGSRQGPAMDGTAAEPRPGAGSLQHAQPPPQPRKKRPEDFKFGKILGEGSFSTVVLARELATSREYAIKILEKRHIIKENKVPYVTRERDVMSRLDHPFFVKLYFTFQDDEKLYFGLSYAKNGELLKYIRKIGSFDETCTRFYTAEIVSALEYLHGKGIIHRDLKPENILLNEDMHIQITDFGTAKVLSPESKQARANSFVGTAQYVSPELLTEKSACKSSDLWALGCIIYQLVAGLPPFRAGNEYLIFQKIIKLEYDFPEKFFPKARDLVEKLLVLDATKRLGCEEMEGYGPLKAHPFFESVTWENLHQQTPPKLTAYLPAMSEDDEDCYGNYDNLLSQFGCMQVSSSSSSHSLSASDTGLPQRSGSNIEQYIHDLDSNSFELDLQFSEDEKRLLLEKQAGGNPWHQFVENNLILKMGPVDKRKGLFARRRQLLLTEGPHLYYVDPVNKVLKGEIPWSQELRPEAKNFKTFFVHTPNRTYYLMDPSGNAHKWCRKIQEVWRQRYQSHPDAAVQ
SGK2, sequence (Q9HBY8 whole entry): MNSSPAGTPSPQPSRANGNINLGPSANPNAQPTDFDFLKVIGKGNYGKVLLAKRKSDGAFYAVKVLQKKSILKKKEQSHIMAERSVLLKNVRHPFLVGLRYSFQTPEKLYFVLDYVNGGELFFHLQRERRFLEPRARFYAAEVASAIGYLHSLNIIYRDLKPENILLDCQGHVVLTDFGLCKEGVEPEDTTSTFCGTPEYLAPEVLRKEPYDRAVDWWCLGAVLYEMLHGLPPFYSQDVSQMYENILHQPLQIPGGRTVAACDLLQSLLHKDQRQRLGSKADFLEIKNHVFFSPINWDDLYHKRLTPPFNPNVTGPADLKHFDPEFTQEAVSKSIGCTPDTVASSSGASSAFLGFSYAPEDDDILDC
ARAF, sequence (P10398 whole entry): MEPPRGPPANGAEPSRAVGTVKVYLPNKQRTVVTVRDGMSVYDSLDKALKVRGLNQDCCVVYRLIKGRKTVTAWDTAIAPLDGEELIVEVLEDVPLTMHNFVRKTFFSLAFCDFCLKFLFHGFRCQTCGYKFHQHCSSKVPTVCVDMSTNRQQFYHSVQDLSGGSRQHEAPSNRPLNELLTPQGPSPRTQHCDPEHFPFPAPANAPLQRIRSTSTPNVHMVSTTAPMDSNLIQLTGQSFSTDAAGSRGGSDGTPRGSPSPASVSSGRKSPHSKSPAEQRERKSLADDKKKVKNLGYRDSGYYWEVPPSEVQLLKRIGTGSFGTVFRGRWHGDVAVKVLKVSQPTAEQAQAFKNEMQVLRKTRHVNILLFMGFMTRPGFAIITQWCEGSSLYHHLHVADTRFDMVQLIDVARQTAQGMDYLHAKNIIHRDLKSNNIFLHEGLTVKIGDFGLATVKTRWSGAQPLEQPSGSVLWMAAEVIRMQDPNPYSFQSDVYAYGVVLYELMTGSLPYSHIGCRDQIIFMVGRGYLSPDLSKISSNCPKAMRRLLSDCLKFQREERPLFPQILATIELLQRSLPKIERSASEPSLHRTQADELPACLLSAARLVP
PIP4K2B, sequence (P78356 whole entry): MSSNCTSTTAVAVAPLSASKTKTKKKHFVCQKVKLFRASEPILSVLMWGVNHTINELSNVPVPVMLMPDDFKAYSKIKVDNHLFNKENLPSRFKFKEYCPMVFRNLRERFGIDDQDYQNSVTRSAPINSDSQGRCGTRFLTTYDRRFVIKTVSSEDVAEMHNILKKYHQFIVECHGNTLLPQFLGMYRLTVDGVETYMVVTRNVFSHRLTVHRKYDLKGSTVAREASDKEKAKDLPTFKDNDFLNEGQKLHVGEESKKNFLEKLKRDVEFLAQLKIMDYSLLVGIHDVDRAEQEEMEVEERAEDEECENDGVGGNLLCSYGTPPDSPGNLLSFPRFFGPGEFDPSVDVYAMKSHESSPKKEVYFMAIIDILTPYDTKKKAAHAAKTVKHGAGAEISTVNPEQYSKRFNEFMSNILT

In the case of `Nc1ncc(-c2cccc([N+](=O)[O-])c2F)cc1-c1ccc2c(c1)CCNC2=O` [Compound I-9, 6-(2-amino-5-(2-fluoro-3-nitrophenyl)pyridin-3-yl)-3,4-dihydroisoquinolin-1(2H)-one], the “% inhibition (range)” value (CK1d, CK1e; 10 μM) is reported as >90%, the “inhibition (10 μM)” value (CK1d, CK1e) is reported as >95% and the inhibition at 10 µM (CDK9; read-out: % inhibition (range)) is reported as 50 to 75%. For the same compound, the inhibition at 10 µM (CDK9; read-out: inhibition (10 μM)) was 65.8%, the “% inhibition (range)” value (ROCK1, ROCK2) was 0.0% and the “inhibition (10 μM)” value (ROCK1, ROCK2) was −55.8%. It also gave an inhibition at 10 µM (ARAF; read-out: % inhibition (range)) of 0%, an inhibition at 10 µM (ARAF; read-out: inhibition (10 μM)) of 9.5% and an inhibition at 10 µM (MAP2K2; read-out: % inhibition (range)) of 0%. For the same compound, the inhibition at 10 µM (MAP2K2; read-out: inhibition (10 μM)) was -8.7%, the inhibition at 10 µM (QSK; read-out: % inhibition (range)) was 50 to 75% and the inhibition at 10 µM (QSK; read-out: inhibition (10 μM)) was 72.8%. It also gave an inhibition at 10 µM (SGK2; read-out: % inhibition (range)) of 0%, an inhibition at 10 µM (SGK2; read-out: inhibition (10 μM)) of -5.4% and an inhibition at 10 µM (KHS2; read-out: % inhibition (range)) of 50 to 75%. It also gave an inhibition at 10 µM (KHS2; read-out: inhibition (10 μM)) of 69.5%, an inhibition at 10 µM (GPRK5; read-out: % inhibition (range)) of 0% and an inhibition at 10 µM (GPRK5; read-out: inhibition (10 μM)) of 19.6%. For the same compound, the inhibition at 10 µM (CK1g1; read-out: % inhibition (range)) was 75 to 90%, the inhibition at 10 µM (CK1g1; read-out: inhibition (10 μM)) was > 85% and the inhibition at 10 µM (PDK1; read-out: % inhibition (range)) was 0%. The inhibition at 10 µM (PDK1; read-out: inhibition (10 μM)) was 28.1%.

With `Nc1ncc(-c2cccc3ncsc23)cc1-c1ccc2c(c1)CCNC2=O` [Compound I-13, 6-(2-amino-5-(benzo[d]thiazol-7-yl)pyridin-3-yl)-3,4-dihydroisoquinolin-1(2H)-one] the “inhibition (10 μM)” value (CK1d, CK1e) was 58.9%, the inhibition at 10 µM (CDK9; read-out: % inhibition (range)) was 35 to 50% and the inhibition at 10 µM (CDK9; read-out: inhibition (10 μM)) was 41.1%. The “% inhibition (range)” value (ROCK1, ROCK2) was 0.0%, the “inhibition (10 μM)” value (ROCK1, ROCK2) was −11.4% and the inhibition at 10 µM (ARAF; read-out: % inhibition (range)) was 0%. For the same compound, the inhibition at 10 µM (ARAF; read-out: inhibition (10 μM)) was 16.7%, the inhibition at 10 µM (MAP2K2; read-out: % inhibition (range)) was 0% and the inhibition at 10 µM (MAP2K2; read-out: inhibition (10 μM)) was -36.7%. The inhibition at 10 µM (QSK; read-out: % inhibition (range)) was 35 to 50%, the inhibition at 10 µM (QSK; read-out: inhibition (10 μM)) was 47.8% and the inhibition at 10 µM (SGK2; read-out: % inhibition (range)) was 0%. For the same compound, the inhibition at 10 µM (SGK2; read-out: inhibition (10 μM)) was 22.1%, the inhibition at 10 µM (KHS2; read-out: % inhibition (range)) was 0% and the inhibition at 10 µM (KHS2; read-out: inhibition (10 μM)) was 1.7%. For the same compound, the inhibition at 10 µM (GPRK5; read-out: % inhibition (range)) was 0%, the inhibition at 10 µM (GPRK5; read-out: inhibition (10 μM)) was -12% and the inhibition at 10 µM (CK1g1; read-out: % inhibition (range)) was 75 to 90%. For the same compound, the inhibition at 10 µM (CK1g1; read-out: inhibition (10 μM)) was > 85%, the inhibition at 10 µM (PDK1; read-out: % inhibition (range)) was 0% and the inhibition at 10 µM (PDK1; read-out: inhibition (10 μM)) was 17.5%.

Work on `Nc1ncc(-c2ccc(NS(=O)(=O)C3CC3)cc2OC2CCCCC2)cc1-c1ccc2c(c1)CCNC2=O` [Compound I-65, N-(4-(6-amino-5-(1-oxo-1,2,3,4-tetrahydroisoquinolin-6-yl)pyridin-3-yl)-3-(cyclohexyloxy)phenyl) cyclopropanesulfonamide] yielded an inhibition at 10 µM (PYK2; [2]) of 35 to 40%, an inhibition at 10 µM (PYK2; read-out: inhibition (10 μM)) of 38.7% and an inhibition at 10 µM (Erk5; [2]) of 0%. The inhibition at 10 µM (Erk5; read-out: inhibition (10 μM)) was -6.5%, the inhibition at 10 µM (MAP3K6; [2]) was 0% and the inhibition at 10 µM (MAP3K6; read-out: inhibition (10 μM)) was -7.2%. For the same compound, the inhibition at 10 µM (PAK2; [2]) was 0%, the inhibition at 10 µM (PAK2; read-out: inhibition (10 μM)) was 1.7% and the inhibition at 10 µM (LATS2; [2]) was 0%. For the same compound, the inhibition at 10 µM (LATS2; read-out: inhibition (10 μM)) was -0.2%, the inhibition at 10 µM (PIP4K2B; [2]) was 0% and the inhibition at 10 µM (PIP4K2B; read-out: inhibition (10 μM)) was -8.9%. The “% inhibition” value (MER, TYRO3; 10 μM, range class) was 0.0%, the “inhibition (10 μM)” value (MER, TYRO3) was 4.6% and the inhibition at 10 µM (GAK; [2]) was 0%. The inhibition at 10 µM (GAK; read-out: inhibition (10 μM)) was 7.7%, the inhibition at 10 µM (MAP3K3; [2]) was 0% and the inhibition at 10 µM (MAP3K3; read-out: inhibition (10 μM)) was -28.3%. For the same compound, the inhibition at 10 µM (TAK1; [2]) was 35 to 40%, the inhibition at 10 µM (TAK1; read-out: inhibition (10 μM)) was 35% and the “% inhibition” value (PCTAIRE1, PCTAIRE3; 10 μM, range class) was 0.0%. The “inhibition (10 μM)” value (PCTAIRE1, PCTAIRE3) was 2.3%, the inhibition at 10 µM (ULK3; [2]) was 0% and the inhibition at 10 µM (ULK3; read-out: inhibition (10 μM)) was 30.6%. It also gave an inhibition at 10 µM (MAP3K15; [2]) of 0%, an inhibition at 10 µM (MAP3K15; read-out: inhibition (10 μM)) of 29.7% and an inhibition at 10 µM (AGK; [2]) of 0%. It also gave an inhibition at 10 µM (AGK; read-out: inhibition (10 μM)) of -21.2%, an inhibition at 10 µM (MELK; [2]) of 50 to 75% and an inhibition at 10 µM (MELK; read-out: inhibition (10 μM)) of 56.5%. For the same compound, the “% inhibition” value (PCTAIRE2, PCTAIRE3; 10 μM, range class) was 0.0%, the “inhibition (10 μM)” value (PCTAIRE2, PCTAIRE3) was 20.3% and the inhibition at 10 µM (LZK; [2]) was 35 to 40%. The inhibition at 10 µM (LZK; read-out: inhibition (10 μM)) was 43.1%, the “% inhibition” value ([1]; 10 μM, range class) was >90% and the “inhibition (10 μM)” value [1] was 91.0%. For the same compound, the inhibition at 10 µM (MLK4; [2]) was 50 to 75%, the inhibition at 10 µM (MLK4; read-out: inhibition (10 μM)) was 56.9% and the inhibition at 10 µM (CLK3; [2]) was 35 to 40%. For the same compound, the inhibition at 10 µM (CLK3; read-out: inhibition (10 μM)) was 40%.
